Patent publication US9364514B2, “Anti-tumor adjuvant therapy” (Universite Pierre et Marie Curie (Paris 6), priority 2011, dated 2016)

Tests used:
[1] = system: mouse breast tumors from transgenic polyoma Middle-T mice (PyMT model); assay: Therapeutic assay in nude mice bearing xenografted mouse breast tumors (PyMT model); type: in vivo; details: 5 mg/kg i.p. daily
Description: (§1) The primary human xenografts were obtained as previously described (Marangoni et al., 2007). Mouse breast cancer tumors were obtained using the transgenic Polyoma Middle-T Mouse PyMT model. Spontaneously growing mammary tumors occurring in transgenic mice were xenografted into nude immunodeficient mice to allow pharmacological assessments, and maintained from nude mouse to nude mouse serially passages.
(§2) For therapeutic experimental assays, 5- to 8-week old Swiss nu/nu female mice received a subcutaneous graft of tumor fragments with a volume of approximately 15 mm3. Tumors developed at the graft site 2 to 6 weeks later. Mice bearing growing tumors with a volume of 40 to 200 mm^3 were individually identified and randomly assigned to the control or treatment groups (10 animals in each group) and treatments were started on day 1. Mice were weighed twice a week. Tumour-bearing mice were sacrificed when the tumor volume reached 2500 mm^3, defined as the ethical limit. Tumor volumes and antitumor activity were evaluated as previously reported (Nemati et al. 2009. Anti Cancer Drugs 20, pages 932-940).
The anti-tumoral effect of the mouse peptide DPT-C9 was analyzed in nude mice bearing xenograft mouse breast tumors obtained from the transgenic polyoma Middle-T mice. […]

[2] = system: breast cancer model BC52; assay: Therapeutic assay in mice bearing primary human breast cancer xenograft BC52; type: in vivo, Swiss nu/nu female mice
Description: as §1, §2
(§3) DPT-C9h peptide diluted in water/glucose (1 to 25 mg/kg) was given by intraperitoneally route 5 to 7 days per week, according to the models and the therapeutic schedules. Doxorubicin (Teva Pharmaceuticals) and cyclophosphamide (Baxter) were diluted in 0.9% NaCl and administered intraperitoneally at a dose of 2 mg/kg and 100 mg/kg at day 1, respectively.
(§4) The anti-tumoral effect of DPT-C9h was tested in mice bearing breast cancer model BC52 and BC146. DPT-C9h was intraperitoneally administered at 5 mg/kg once daily for 5 weeks.

[3] = system: BC146 human breast cancer model; assay: Therapeutic assay in mice bearing primary human breast cancer xenograft BC146; type: in vivo, Swiss nu/nu female mice
Description: as §1, §2, §3, §4
The inventors have further tested combined administration of DPT-C9h with doxorubicin and cyclophosphamid chemotherapy. The administration was either simultaneous or sequential: DPT-C9h was then administered at day 20, a stage corresponding to a chemotherapy-induced complete remission.

[4] = system: MDA MB231 breast cancer cell line; assay: Detection of apoptosis by Annexin-V-FITC staining; type: cell-based
Description: (§5) MDA MB231 breast cancer cell line was cultured in DMEM medium supplemented with 10% of FCS.
Apoptotic cells were detected using Annexin-V (-FITC from BD biosciences) as described by the manufacturer. Briefly, the cells were washed in 1× binding buffer, centrifuged and then resuspended in 200 μl of 1× binding buffer containing Annexin V-FITC (0.1 μg/ml) and PI (0.5 μg/ml). After incubation at room temperature in the dark for 10 min, cells were analyzed by flow cytometry. Data acquired by FACSCalibur (BD biosciences) were analyzed with Cellquest Pro software.

[5] = system: MDA MB231 breast cancer cell line; assay: Cytotoxicity assay (MTT); type: cell-based; details: 61 h
Description: as §5
The cytotoxicity of chemotherapy and the peptide was assessed by MTT. […] Cells were rinsed with culture medium and incubated with 10 μl MTT (5 mg/ml) in a final volume of 100 μl for 4 h at 37° C. The formation of blue formazan crystals was visualized by microscopy. After this period of incubation, 100 μl of 10% SDS in 10 mM HCl was added to each well and the plate incubated overnight. The absorbance was measured at 570 and 620 nm and the percentage of viable cells to untreated controls was estimated.

[6] = BC52 model, Treatment (Chemo.) = Ovariectomy, DPT-C9h 5 mg/kg i.p. once daily for 5 weeks
[7] = BC146 model, Chemo. = Doxorubicin + cyclophosphamid, DPT-C9h 5 mg/kg i.p.

| Substance | tumor growth inhibition [1] | tumor growth inhibition ([2]; BC52, 5 mg/kg i.p. once daily for 5 weeks, end of treatment) | OS: Overall survival [2, 6] | RTV: Relative tumor volume [2, 6] | tumor growth inhibition ([3]; BC146, 5 mg/kg i.p. once daily for 5 weeks, end of treatment) | OS: Overall survival [3, 7] | RTV: Relative tumor volume [3, 7] | tumor relapse ([3]; DPT-C9h combined with doxorubicin and cyclophosphamid, simultaneous or sequential (from day 20), versus chemotherapy alone) | CR: Complete remission ([3]; Treatment (Chemo.) = Doxorubicin 2 mg/kg + cyclophosphamid 100 mg/kg i.p. day 1, DPT-C9h simultaneous or from day 20) | apoptosis (annexin staining), combination effect ([4]; 5FU 10 μM 24 h, then 25 or 50 μM DPT-C9h for 24 further h) | apoptosis (annexin staining), combination effect ([4]; cisplatin 10 μM 24 h, then increasing doses of DPT-C9h for 24 further h) | apoptosis (annexin staining), combination effect ([4]; different doses of DPT-C9h + doxorubicin 0.25 μM, 24 h) | apoptosis (annexin staining), combination effect ([4]; docetaxel 0.5 μM + 10 and 25 μM DPT-C9h, 24 h) | cell survival (MTT) ([5]; different doses of 5FU + DPT-C9h 10 μM) | cell survival (MTT) ([5]; different doses of cisplatin + DPT-C9h 10 μM) | cell survival (MTT) ([5]; different doses of docetaxel + DPT-C9h 10 μM, versus docetaxel only) |
| --- | --- | --- | --- | --- | --- | --- | --- | --- | --- | --- | --- | --- | --- | --- | --- | --- |
| VKKKKIKREIKI-YIETLDDILEQWARSEDL (VKKKKIKREIKIYIETLDDILEQWARSEDL; cell penetrating peptide) [DPT-C9] | significant tumor growth inhibition |  |  |  |  |  |  |  |  |  |  |  |  |  |  |  |
| VKKKKIKREIKI-YVETLDDIFEQWAHSEDL (VKKKKIKREIKIYVETLDDIFEQWAHSEDL; cell penetrating peptide) [DPT-C9h] |  | significant tumor growth inhibition | 33% | 0.70 | significant tumor growth inhibition | 27% | 20.2 | delayed tumor relapse better than chemotherapy alone | 0% | synergistic apoptotic effect | synergistic apoptotic effect | synergistic effect on apoptosis | synergistic apoptotic effect | low cell survival | low level of cell survival | low survival |
